From patent US20080051464A1, “Protein phosphatase inhibitors” (The Cleveland Clinic Foundation, priority 2006, published 2008)

Assays:
[1] = system: SHP-1 substrate pLck-pY394 in Jurkat T cells; experiment: induction of pLck-pY394 in Jurkat cells (SDS-PAGE/Western blotting); assay type: cell-based, human
Procedure: (§1) Jurkat cells in culture medium (3×10^6 cells/ml, 1 ml/tube) were treated with agents for designated times at room temperature. After brief centrifuging in a microfuge (4,000 rpm, 2 min), the cell pellet was lysed on ice for 30 min in 100 μl of cold lysis buffer (1% NP40, 50 mM Tris, pH 7.4, 150 mM NaCl, 20 mM NaF, 0.2 mM Na3VO4 and 1 mM Na3MO4) containing a cocktail of proteinase inhibitors (Sigma, 1 tablet/10 ml). The lysates were cleared by centrifuging (14,000 rpm, 10 min) in a microfuge at 4° C. to remove insoluble parts, mixed with equal volume of 2×SDS-PAGE sample buffer, boiled for 5 min and analyzed (˜3×10^5 cells/well) by SDS-PAGE/Western blotting. Relative intensities of phosphotyrosine bands were quantified through densitometry analysis.
as §1, with “blotting as described previously (23, 24).” for “blotting.”
as §1, with “blotting as described previously (17, 18).” for “blotting.”

pERK1/2 in Jurkat cells = pERK1/2 in Jurkat cells (Western blotting); assay type: cell-based, human
Procedure: as §1
as §1, with “blotting as described previously (17, 18).” for “blotting.”

[2] = system: IFNγ+ cells in human peripheral blood; experiment: induction of IFNγ+ cells in human peripheral blood in vitro (ELISPOT); assay type: cell-based
Procedure: For induction of human primary IFNγ+ cells, heparinized peripheral blood samples were obtained by vein-puncture from healthy volunteers following an established protocol approved by the Institutional Review Board (IRB) of Cleveland Clinic. To mimic in vivo drug-exposure, human peripheral blood samples were directly treated with different agents without pre-separation of white blood cells from other blood components. Blood samples (0.1 ml/sample) were mixed with the agents, incubated at 37° C. for 4 hrs, diluted with 5 volumes of hypotonic solution (10 mM Tris, pH 7.4; 10 mM NaCl) to lyse RBC and centrifuged to pellet WBCs. The pellets were washed with hypotonic solution one time, re-suspended in RPMI 1640 medium (10% FCS) and used for ELISPOT assays (Human IFNγ ELISPOT Kit, R & D System) to quantify human IFNγ+ cells as outlined above.

[3] = system: spleen pLck and IFNγ+ cells; experiment: in vivo induction of spleen pLck and IFNγ+ cells in mice; parameters: species or system mouse
Procedure: Spleens were harvested one hour post-treatment on day 4 and processed into splenocytes, which were used for assessing pLck levels by SDS-PAGE/Western blotting and for quantification of IFNγ+ cells by ELISPOT assays. Mice were also treated with L5 (˜10 mg/kg body weight, daily, s.c., n=2) to evaluate the toxicity of the compounds in vivo.

B16 melanoma tumors [4] = experiment: B16 melanoma tumor growth in C57BL/6J mice; assay type: in vivo
Procedure: Tumor volume (n=5) was measured during the study period and calculated using the formula for a prolate spheroid. Student's t test was used for assessing the significance of tumor volume differences among differential treatment groups. Mouse viability (daily) and body weights (weekly) were also recorded during the study period. Major internal organs of the mice were inspected visually upon their termination at the end of the experiment.
To assess anti-tumor activity, C57BL/6J mice (˜8-week old, female, Taconic Farms, Germantown, N.Y.) were inoculated (s.c.) at the flanks with B16 melanoma cells (4×10^4 cells/site). […] Tumor volume (n=5) was measured during the study period and calculated using the formula for a prolate spheroid. Student's t test was used for assessing the significance of tumor volume differences among differential treatment groups. Mouse viability (daily) and body weights (weekly) were also recorded during the study period. Major internal organs of the mice were inspected visually upon their termination at the end of the experiment.

B16 melanoma tumors [5] = experiment: B16 melanoma tumor growth in athymic nude mice; assay type: in vivo, mouse; conditions: 3 mg/kg/day, oral, M-F/week
Procedure: To assess L5 anti-tumor activity, C57BL/6J mice or athymic nude mice (˜8-week old, female, Taconic Farms, Germantown, N.Y.) were inoculated (s.c.) at the flanks with B16 melanoma cells (4×10^4 cells/site). Four days post-inoculation, the mice were treated with PBS (Control) or L5 (˜3 mg/kg body weight/daily, Monday—Friday/week, oral gavage). Tumor volume (n=5) was measured during the study period and calculated using the formula for a prolate spheroid. Student's t test was used for assessing the significance of tumor volume differences among differential treatment groups. Mouse viability (daily) and body weights (weekly) were also recorded during the study period. Major internal organs of the mice were inspected visually upon their termination at the end of the experiment.

B16 melanoma cells = experiment: B16 melanoma cell growth in culture (MTT assay); assay type: cell-based, mouse; conditions: doses up to 10 μg/ml, 5 days
From the text: L5, L6 and L6 analogs (Chembridge), mouse IFNγ ELISPOT Kit (R & D System) and antibody against pLck-pY394 or pERK1/2 (Cell Signaling) were purchased from commercial sources. Human Jurkat T cell line and murine B16 melanoma cell line (ATCC) and other cancer cell lines were maintained in […] culture medium supplemented with 10% fetal calf serum (FCS). The effects of chemical compounds on cancer cell growth in culture were quantified by MTT assays following our established procedures.

SMILES: O=C1C=CC(=O)C(c2cc(Cl)ccc2Cl)=C1 [L5]
- level capable of inhibiting SHP-1 in Jurkat T cells [1]: 10 ng/mL
- level capable of inhibiting SHP-1 in Jurkat T cells (molar) [1]: ~40 nM
- pLck-pY394 induction ([1]; 0.01 μg/ml, 10 min): 2-3 fold
- pLck-pY394 induction ([1]; 0.1, 1 or 3 μg/ml, 10 min): > 4 folds
- effective dose for pLck-pY394 induction / intracellular SHP-1 inhibition ([1]; Jurkat cells, 10 min): ≥ 0.01 μg/ml
- pLck-pY394 induction in comparison to untreated control ([1]; Jurkat cells, 10 min, densitometry (FIG. 2)): ~10 fold
- potency relative to SSG ([1]; by weight): approximately 1,000 fold
- potency relative to SSG ([1]; in equal molar ratios): ~350 fold
- levels of pERK1/2 (pERK1/2 in Jurkat cells; 1 μg/ml): reduced the levels of pERK1/2
- effect on SHP-2 or CD45 phosphatases (pERK1/2 in Jurkat cells; 10-100 ng/ml in Jurkat cells): did not affect
- levels of pERK1/2 (pERK1/2 in Jurkat cells; lower doses (0.1 to 0.001 μg/ml)): not at lower doses
- maximal induction of IFNγ+ cells in human peripheral blood ([2]; 8 μg/ml): 20 fold
- effectiveness compared with SSG in inducing IFNγ+ cells ([2]; maximal induction at a comparable dose, human peripheral blood): ~20 fold
- effect on pLck ([3]; 1 mg/kg of body weight): only a minor effect
- increase of splenocyte pLck ([3]; ~3 mg/kg of body weight, s.c., daily, 4 days): ~3.3 fold
- increase of spleen IFNγ+ cells ([3]; ~3 mg/kg, s.c., daily, 4 days): approximately 3 fold
- survival of treated mice (B16 melanoma tumors [4]; 1 mg/kg daily, oral gavage): survived till the end of the study
- abnormality in behavior or gross anatomy (B16 melanoma tumors [4]; 3 mg/kg/day, oral): no apparent abnormality in behavior or gross anatomy
- survival of treated mice (B16 melanoma tumors [4]; 3 mg/kg/day, oral): survived until the end of the study
- growth inhibition of B16 tumors vs control (B16 melanoma tumors [4]; 3 mg/kg/day, oral, M-F/week, end of study): ~83%
- B16 melanoma tumors in athymic nude mice (B16 melanoma tumors [5]): not inhibited
- direct toxicity against B16 cells (B16 melanoma cells): little direct toxicity
